These results are taken from patent US20160209428A1, “DIAGNOSTIC AND PREDICTIVE METABOLITE PATTERNS FOR DISORDERS AFFECTING THE BRAIN AND NERVOUS SYSTEM” (THE REGENTS OF THE UNIVERSITY OF CALIFORNIA, priority 2013, published 2016).

This assay deals with maternal immune activation (MIA) mouse model. The assay can be described thus: Plasma metabolomics after single-dose suramin or saline, MIA model. The assay is classed as in vivo. The settings on record: for Pathway normalized by single-dose suramin treatment: MIA mice. As for the experimental part:
Only male animals that had been behaviorally evaluated were tested. Samples were analyzed on an AB SCIEX QTRAP 5500 triple quadrupole mass spectrometer equipped with a Turbo V electrospray ionization source, Shimadzu LC-20A UHPLC system and a PAL CTC autosampler (AB SCIEX). […] Plasma was separated by centrifugation at 600 g×5 min at 20° C. within 1 h of collection. Fresh lithium-heparin plasma was transferred to labeled tubes for storage at −80° C. for analysis. Typically, 45 μl of plasma was thawed on ice and transferred to a 1.7-ml Eppendorf tube. Two and one-half (2.5) microliters of a cocktail containing 35 commercial stable isotope internal standards and 2.5 μl of 310 stable isotope internal standards that were custom-synthesized in Escherichia coli and Saccharomyces cerevisiae by metabolic labeling with ^13C-glucose and ^13C-bicarbonate were added, mixed and incubated for 10 min at 20° C. to permit small molecules and vitamins in the internal standards to associate with plasma-binding proteins. Macromolecules (protein, DNA, RNA and so on) were precipitated by extraction with 4 volumes (200 μl) of cold (−20° C.), acetonitrile:methanol (50:50) (LCMS grade, Cat no. LC015-2.5 and GC230-4, Burdick & Jackson, Honeywell, Muskegon, Mich., USA), vortexed vigorously and incubated on crushed ice for 10 min, and then removed with centrifugation at 16000 g×10 min at 4° C. The supernatants containing the extracted metabolites and internal standards in the resulting 40:40:20 solvent mix of acetonitrile:methanol:water were transferred to labeled cryotubes and stored at −80° C. for LC-MS/MS (liquid chromatography-tandem mass spectrometry) analysis.
LC-MS/MS analysis was performed by MRM under the Analyst v1.6.1 software control in both negative and positive modes with rapid polarity switching (50 ms). Nitrogen was used for curtain gas (set to 30), collision gas (set to high) and ion source gases 1 and 2 (set to 35). The source temperature was 500° C. Spray voltage was set to −4500V in negative mode and to 5500V in positive mode. The values for Q1 and Q3 mass-to-charge ratios (mz−1), declustering potential, entrance potential, collision energy and collision cell exit potential were determined and optimized for each MRM for each metabolite. Ten microliters of extract were injected with PAL CTC autosampler into a 250 mm×2.1 mm, 5-μm Luna NH2 aminopropyl HPLC column (Phenomenex) held at 25° C. for chromatographic separation. […] The flow rate was 300 μl min^−1. All the samples were kept at 4° C. during analysis. The chromatographic peaks were identified using MultiQuant v2.1.1 (AB SCIEX), confirmed by manual inspection and the peak areas were integrated. The median of the peak area of stable isotope internal standards was calculated and used for the normalization of metabolite concentration across the samples and batches. N=6, 6.5-month-old males per group. Metabolite data were log-transformed before multivariate and univariate analyses.
Group means and s.e.m. are reported. Behavioral data involving more than two groups were analyzed by two-way analysis of variance (ANOVA) and one-way ANOVAs (GraphPad Prism 5.0d, GraphPad Software Inc., La Jolla, Calif., USA). Pair-wise post hoc testing was performed by the method of Tukey. Repeated measures ANOVA with prenatal treatment and drug as between subject factors and stimulus (mouse/cup) on time spent with mouse or cup was used as an additional test of social preference. Student's t-test was used for comparisons involving the two groups. Significance was set at P<0.05. Bonferroni post hoc correction was used to control for multiple hypothesis testing when t-tests were used to test social preference in two or more experimental groups. Metabolomic data were analyzed using multivariate partial least squares discriminant analysis, Ward hierarchical clustering and univariate one-way ANOVA with pairwise comparisons and post hoc correction by Fisher's least significant difference test in MetaboAnalyst.

Entries after “also recorded” stand apart in the source; their conditions may differ.

For `Cc1ccc(C(=O)Nc2ccc(S(=O)(=O)O)c3cc(S(=O)(=O)O)cc(S(=O)(=O)O)c23)cc1NC(=O)c1cccc(NC(=O)Nc2cccc(C(=O)Nc3cc(C(=O)Nc4ccc(S(=O)(=O)O)c5cc(S(=O)(=O)O)cc(S(=O)(=O)O)c45)ccc3C)c2)c1` [Suramin, suramin], the “Pathways normalized by single-dose suramin treatment, all disturbed pathways” value (17/18 pathways disturbed in the MIA model, plasma) was 94% (17/18). Besides, the “Pathway normalized by single-dose suramin treatment” value (shortened to “Pathway normalized”) is on record as “Yes (1/1)” (Amino-sugar and galactose metabolism, plasma); “No (0/3)” (Bile salt metabolism, plasma); “Yes (1/1)” (Biopterin, neopterin, molybdopterin metabolism, plasma); “Yes (4/4)” (Cholesterol, cortisol, steroid metabolism, plasma); “Yes (1/1)” (GABA, glutamate, arginine, omithine, proline metabolism, plasma); “Yes (3/3)” (Glycolysis and gluconeogenesis, plasma). For the same compound, the “Pathway normalized” value is, setting by setting: (Krebs cycle, plasma) “Yes (2/2)”; (Microbiome metabolism, plasma) “Yes (6/6)”; (Oxalate, glyxoylate metabolism, plasma) “Yes (2/2)”; (Phospholipid metabolism, plasma) “Yes (4/4)”; (Purine metabolism, (metabolites normalized/discriminating), plasma 2 days after single dose) “Yes (9/11)”; (Pyrimidine metabolism, plasma) “Yes (1/1)”. Further, the “Pathway normalized” value (SAM, SAH, methionine, cysteine, glutathione metabolism, plasma) is given as “Yes (1/1)”; the “Pathway normalized” value (Sphingolipid metabolism, plasma) is recorded as “Yes (4/4)”; the “Pathway normalized” value (Thyroxine metabolism, plasma) is recorded as “Yes (1/1)”; the “Pathway normalized” value (Tryptophan metabolism, plasma) is “Yes (1/1)”; the “Pathway normalized” value (Vitamin B2 (riboflavin) metabolism, plasma) is recorded as “Yes (1/1)”; the “Pathway normalized” value (Vitamin B3 (niacin/NAD) metabolism, plasma) is recorded as “Yes (1/1)”. The “bile salt pathway disturbance” value (MIA model) was “not restored”. Besides, the “differences in metabolic profile between control and MIA animals” value (plasma 2 days after single dose suramin 20 mg kg^−1 i.p.) was “substantially normalized; also recorded: drives the metabolism of MIA animals (PIC-Sal) strongly in the direction of controls”.
